Entries after “also recorded” stand apart in the source; their conditions may differ.

This is an account of results in patent US20240003872A1, “METHODS FOR ASSAYING AND MEASURING THE EFFICACY OF ANTI-NAUSEA COMPOUNDS” (priority 2020, published 2024).

Assay [1] concerns human intestinal smooth muscle cells (HISMCs). The assay is described as follows: HISMC/collagen matrix cell contraction assay. Format: cell-based. Here is the method:
This assay was used to study the ability of […] to reorganize and contract in a collagen matrix. All procedures were done accordingly to protocols described by Dr. Alexander (5-HT3 dependent smooth muscle contraction assay, revised Aug. 30, 2012). The assay consisted in the preparation of collagen solution and in the polymerization and release of […]/collagen matrices. For 12 mL of collagen/[…], 15.0 mg of rat tail collagen was dissolved in 3.2 mL of cold 0.012M HCL. The solution was placed for 30 min in a rocker machine for gently agitation to avoid introducing bubbles. Then, 0.8 mL of cold PBS was added to the tube, mixed well, and kept on ice. The pH of the collagen solution was quickly titrated with 0.5 M NaOH to 7.45, and monitored by pH strips. The final collagen concentration was 1.25 mg/mL. The neutralized cold collagen solution was mixed with 12 mL of cold SMCM/1.5% dialyzed FBS containing […] at desire cell density (1×10^5 cells/mL). 0.5 mL of collagen/[…] mixture was added per well in 24-well plates and was incubated for 1 h at 37° C., 5% CO2. After collagen polymerization, 0.5 mL of culture medium with or without two-time concentration of drug treatments was added atop each collagen gel lattice. The polymerized collagen matrix containing […] was released from the edges of the well with a sterilized heat-blunted Pasteur pipette tip to allow them to float in culture medium, and contraction occurred with or without agonist addition in the absence of external mechanical load. The collagen gel size change (contraction index) was measured by morphometric analysis at various times (0, 24, 48, and 72 h). The culture plates were analyzed in triplicate and monitored at 24 h intervals. At the end of each time point, the plates were scanned via an Epson flatbed scanner.

Assay [2] deals with Women undergoing gynecological surgery. Particulars: 1.0 g ginger or 10 mg metochlopramide orally prior to surgery; P < .05; cited from earlier work.
For assay [3], the system named is women after laparascopic gynaecological surgery. Particulars: post-operative; given one hour prior to anaesthesia; placebo 41%; cited from earlier work.
For assay [4] the test system is unchanged. Particulars: ginger, 1.25 mg droperidol, vs placebo; cited from earlier work.
The subject of assay [5] is college students with self-rated high susceptibility to motion sickness. Particulars: 940 mg ginger root or 100 mg Dramamine 25-30 minutes prior to test; P < .001; cited from earlier work.

On to `Cc1nccn1CC1CCc2c(c3ccccc3n2C)C1=O` (centres unmarked) [Ondansetron], for which, in assay [1] (with 5-HT (10^−7M), different concentrations, 0-72 h), the “effect on 5-HT induced HISMC/collagen matrix contraction” value was “reduced; also recorded: inhibited HISMCs contractions in a concentration- and time-dependent manner”. Also, the “effect on HISMC/collagen matrix contraction without 5-HT” value in assay [1] (without 5-HT, different concentrations, 0-72 h) was “inhibited HISMCs contractions in a concentration- and time-dependent manner”.
For `CCN(CC)CCNC(=O)c1cc(Cl)c(N)cc1OC` [metochlopramide], the “effectiveness versus placebo for post-operative nausea and vomiting control” value in assay [2] is reported as “significantly more effective than placebo”. Further, the patients nauseated entry in assay [3] is “placebo, 27%”.
With `C[C@@H](O[C@H]1OCCN(Cc2n[nH]c(=O)[nH]2)[C@H]1c1ccc(F)cc1)c1cc(C(F)(F)F)cc(C(F)(F)F)c1` [Aprepitant], the “effect on HISMC/collagen gel contraction” value in assay [1] (different concentrations, with or without 5-HT3) is “attenuated collagen gel contraction only at high concentrations, 10^−4 M and not significantly”.
`O=C(CCCN1CC=C(n2c(=O)[nH]c3ccccc32)CC1)c1ccc(F)cc1` [droperidol]: the “decrease in nausea or vomiting post-surgery” value in assay [4] is “no differences”.
On to `CN(C)CCOC(c1ccccc1)c1ccccc1` [diphenhydramine], for which, in assay [5], the “reducing vection induced motion sickness versus placebo (time in induced motion)” value is “more effective than dried chickweed herb placebo”.
On to `Cl.NCCc1c[nH]c2ccc(O)cc12` [5-HT, 5-Hydroxytryptamine hydrochloride], for which the “contraction of HISMC gels induced by agonist” value in assay [1] (5-HT at 10^−7M, 10^−8M and 10^−9M) was “induced dose and time dependent contraction”.
